Measured values reported in publication PMC6892255, “Identification of a potent small-molecule inhibitor of bacterial DNA repair that potentiates quinolone antibiotic activity in methicillin-resistant Staphylococcus aureus^” (Bioorganic & Medicinal Chemistry, 2019).
Entries after “also recorded” stand apart in the source; their conditions may differ.

Assays:
[1] = tested on: E. coli K-12 BW25113; test: MIC / growth inhibition assay (end-point OD600), single agent; assay type: cell-based, Escherichia coli; settings: Escherichia coli, BW25113, end-point OD600 after 18 h, read-out: EC50 E. coli (K12 BW25113) Compound only
From the text: (§1) Minimum inhibitory concentration (MIC) assays were used to evaluate the antimicrobial activity of compounds against Gram-negative (E. coli) and Gram-positive (S. aureus) bacteria. […] Gram-positive bacteria are more susceptible to small-molecule penetration, and compounds were therefore assessed for growth inhibition against the S. aureus SH1000 strain.
(§2) 2.1. Biological and biochemical methods
(§3) Bacterial strains and culture conditions
(§4) Strains utilized in the present study are detailed in Table S1. All strains used were cultivated on Mueller Hinton Agar (MHA) and grown to stationary-phase in Mueller Hinton Broth (MHB) at 37 °C for 16 h, with shaking at 180 r.p.m.
(§5) Minimum inhibitory concentration (MIC) assays
(§6) MIC assays were performed in 96 well plates and MICs were determined in accordance with the broth microdilution protocol.4 Strains grown to stationary-phase in MHB were adjusted to 5 x 10^5 colony-forming units (CFU)/mL in fresh MHB (100 µL/well) supplemented with DMSO to ensure a constant concentration of 0.5% (v/v) DMSO across all experiments. Where […]
(§7) or H2O2 (200 μM). Test compounds were prepared as two-fold serial dilutions. Cells were […]
(§8) as the lowest concentration with no visible bacterial growth, and the optical density at 600 nm (OD600) was recorded. OD600 measurements were background corrected against no-inocula control and normalized to DMSO control for dose-response analysis. The EC50 value mean and SEM were calculated from individual EC50 values from three biological replicates. […]

[2] = tested on: methicillin-resistant S. aureus (MRSA, USA300 JE2); test: as above; assay type: cell-based, Staphylococcus aureus
From the text: as §1
Methicillin-resistant S. aureus (MRSA) is a multi-drug resistant bacterium responsible for a large number of nosocomial infections.[34] The emergence of community associated (CA)-MRSA capable of infection of healthy individuals highlights its significance and clinical relevance.[35]
as §2, §3, §4, §5, §6, §7, §8

[3] = tested on: methicillin-resistant S. aureus (MRSA, USA300 JE2); test: Ciprofloxacin (CFX) potentiation in MRSA growth inhibition assay; assay type: cell-based, Staphylococcus aureus
[4] = tested on: MRSA (USA300 JE2); test: Growth inhibition in the presence of mitomycin-C; assay type: cell-based, Staphylococcus aureus
Description: (§9) The analogue panel was further tested for potentiation of alternative DNA-damaging agents Mitomycin-C (MMC) and hydrogen peroxide (Table S2), which function via alkylation and oxidization DNA bases, respectively.
as §2, §3, §4, §5, §6, §7, §8

[5] = tested on: MRSA (USA300 JE2); test: Growth inhibition in the presence of H2O2; assay type: cell-based, Staphylococcus aureus
Description: as §9, §2, §3, §4, §5, §6, §7, §8

[6] = tested on: SOS response in JE2 cells; test: SOS reporter assay (GFP under control of the recA promoter); assay type: cell-based, Staphylococcus aureus; settings: for SOS response (normalized GFP fluorescence/cell): JE2 recA-GFP reporter, SOS activated with CFX (10 µM), titration of compound
From the text: A SOS reporter system was generated by transformation of JE2 cells with a plasmid containing GFP under control of the recA promoter. Activation of the SOS response in these cells results in expression of GFP which can be monitored by fluorescence intensity. […] IMP-1700 (10) was coupled with N-Boc-ethylenediamine to afford amide 19, followed by removal of the Boc group in 4 M HCl/dioxane and purification using strong cation exchange resin. The resulting free amine 20 was coupled to N-hydroxysuccinimide (NHS)-activated Sepharose resin at 4 °C overnight (Figure 2C), and the remaining NHS sites quenched in Tris buffer. SoluBL21 competent E. coli were transformed with pET28b^+ containing StrepII-tagged AddA and hexahistidine-tagged AddB, and expression induced overnight at 16 °C. […] Beads were washed three times with lysis buffer and bound protein eluted with SDS-PAGE sample buffer, followed by PAGE separation. […]
JE2 transformed with SOS-inducible pCN34 PrecA-gfp reporter plasmid expressing GFP under the control of the recA promoter were grown to late stationary phase at 37 °C in MHB containing kanamycin (90 μg/mL). Stationary phase JE2 culture (1 mL) was centrifuged (17,000 × g, 2 min), the supernatant removed and cells resuspended in assay media (12.5 µM […]
concentration was maintained >12.5 µM and DMSO concentration maintained at 1.5% (v/v).
JE2 culture (20 uL) was added to inhibitor solutions (180 µL) to a final cell density of 4 x 10^7 CFU/mL and samples incubated in a M200-PRO microplate reader (Tecan) at 37 °C with 700 rpm agitation for 17 h. GFP fluorescence intensity and OD600 were measured at 15 min intervals. Measurements were background corrected against no-inocula control and normalized to no-test inhibitor control at mid-exponential growth phase (4.5 h) for dose-response analysis. […]

O=C(O)c1cn(C2CC2)c2cc(N3CCN(C(=S)Nc4ccc(C(F)(F)F)cc4)CC3)c(F)cc2c1=O [Compound 10]
EC50 [1]: 0.5 ± 0.05 µM | EC50 ([2]; Staphylococcus aureus, 18 h, read-out: EC50 S. aureus (USA300 JE2) Compound only, single agent, end-point OD600 after 18 h): 3.8 ± 0.5 µM | fold less potent against JE2 compared to SH1000 ([2]; ratio of single-agent EC50 values): > 20 fold | fold increase in potency against JE2 in the presence of CFX compared to single agent ([3]; CFX 9.4 µM): ~650 fold | fold increase in potency compared to 1 for potentiation against JE2 by CFX ([3]; JE2 + CFX): ~160 fold | fold increase in potency of para- over meta-substituted analogue, potentiation by CFX ([3]; JE2 + CFX, 4 vs 1, 10 vs 7, 14 vs 13): ~25 fold | EC50 ([3]; read-out: EC50 S. aureus (USA300 JE2) Compound + CFX (9.4 μM), in presence of half-MIC CFX (9.4 μM)): 0.0059 ± 0.0006 µM | Potentiation of Mitomycin-C (MMC) ([4]; JE2): did not potentiate | EC50 ([4]; read-out: EC50 Compound + MMC (0.40 µM), MRSA USA300 JE2, mitomycin-C 0.40 µM): 1.4 ± 0.3 µM | Potentiation of hydrogen peroxide ([5]; JE2): did not potentiate | EC50 ([5]; read-out: EC50 Compound + H2O2 (200 µM), MRSA USA300 JE2, H2O2 200 µM): 4.1 ± 0.6 µM | Effect on cell number (OD600) in SOS reporter assay ([6]; JE2 recA-GFP reporter with CFX (10 µM)): decrease in cell number at low micromolar concentrations | SOS response (normalized GFP fluorescence/cell) [6]: decreased | SOS response (normalized GFP fluorescence/cell) ([6]; listed as IMP-1700): decreased normalized GFP fluorescence/cell; also recorded: decreased SOS response
